Data reported in patent US9809573B2, “Substituted pyridine derivatives useful as GSK-3 inhibitors” (priority 2013, dated 2017).
pIC50: −log10 of the molar value. Where two headings read alike, the source gives them in different places.

Tests used:
GSK3β = GSK3β (Homo sapiens, UniProt P49841); assay: GSK3β kinase assay (Caliper LabChip3000, fluoresceinated peptide substrate); assay type: biochemical
Experimental: (§1) The kinase assay was performed in V-bottom 384-well plates. […] The reaction was incubated at room temperature for 20 hours and terminated by adding 45 μl of 35 mM EDTA to each sample. The reaction mixture was analyzed on the Caliper LabChip3000 (Caliper, Hopkinton, Mass.) by electrophoretic separation of the unphosphorylated substrate and phosphorylated product. […] Compounds were dissolved at 10 mM in dimethylsulfoxide (DMSO) and evaluated at eleven concentrations. IC50 values were derived by non-linear regression analysis.

pTau = pTau assay (method not described); assay type: cell-based; details: for pIC50: read-out: pTau; for IC50: read-out: pTau (nM)
GSK3α = GSK3α (Homo sapiens, UniProt P49840); assay: biochemical
GSK3α, sequence (P49840 whole entry, species assumed): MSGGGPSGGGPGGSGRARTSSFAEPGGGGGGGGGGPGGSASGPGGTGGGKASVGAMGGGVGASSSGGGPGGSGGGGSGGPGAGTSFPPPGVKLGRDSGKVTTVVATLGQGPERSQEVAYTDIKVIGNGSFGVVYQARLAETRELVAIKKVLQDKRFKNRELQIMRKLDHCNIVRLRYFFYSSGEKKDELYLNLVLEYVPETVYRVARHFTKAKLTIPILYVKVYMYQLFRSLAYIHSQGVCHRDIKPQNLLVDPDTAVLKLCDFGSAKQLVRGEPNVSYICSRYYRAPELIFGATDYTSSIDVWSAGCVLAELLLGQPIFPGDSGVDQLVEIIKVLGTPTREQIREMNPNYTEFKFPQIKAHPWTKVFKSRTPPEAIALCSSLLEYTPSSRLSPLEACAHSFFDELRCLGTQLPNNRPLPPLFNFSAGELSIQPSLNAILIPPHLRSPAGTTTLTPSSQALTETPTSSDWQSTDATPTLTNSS
Experimental: as §1

[1] = first value of the cell; 250 pM enzyme, 20 uM ATP, 20 hours at room temperature; read-out: GSK3β/α (nM): GSK3β IC50
[2] = second value of the cell; 250 pM enzyme, 20 uM ATP, 20 hours at room temperature; read-out: GSK3β/α (nM): GSK3α IC50

GSK3β, sequence (P49841 whole entry, species assumed): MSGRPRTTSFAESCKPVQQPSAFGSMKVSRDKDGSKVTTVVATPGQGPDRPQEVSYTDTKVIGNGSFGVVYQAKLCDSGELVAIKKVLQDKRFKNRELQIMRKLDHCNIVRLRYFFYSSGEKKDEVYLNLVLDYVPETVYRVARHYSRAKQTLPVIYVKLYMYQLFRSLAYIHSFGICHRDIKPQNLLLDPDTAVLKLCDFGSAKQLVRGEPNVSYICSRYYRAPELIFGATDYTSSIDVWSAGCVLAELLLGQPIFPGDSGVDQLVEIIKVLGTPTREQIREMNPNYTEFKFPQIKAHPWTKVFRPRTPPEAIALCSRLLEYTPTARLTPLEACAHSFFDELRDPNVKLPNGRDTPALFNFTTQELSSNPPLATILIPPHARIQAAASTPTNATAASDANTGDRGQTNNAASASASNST

Compound | IC50 (GSK3β; [1]) [nM] | pIC50 (pTau) | pIC50 (GSK3β) | IC50 (GSK3α; [2]) [nM] | further results
O=C(Nc1cnccc1-c1cccnc1)c1ccnc(NC(=O)C2CC2)c1 [Example 32, N-([3,4′-bipyridin]-3′-yl)-2-(cyclopropanecarboxamido)isonicotinamide] | 160 | 5.49 | – | – | –
O=C(Nc1cncc(-c2ccccc2)c1)c1ccnc(NC(=O)C2CC2)c1 [Example 104, 2-(cyclopropanecarboxamido)-N-(5-phenylpyridin-3-yl)isonicotinamide] | – | – | 8.30 | – | IC50 (pTau): 270 nM; pIC50 (GSK3α): 8.70
CC1(C)CN(c2ccncc2NC(=O)c2ccnc(NC(=O)C3CC3)c2)CCO1 [Example 87, 2-(Cyclopropanecarboxamido)-N-(4-(2,2-dimethylmorpholino)pyridin-3-yl)isonicotinamide] | – | 7.60 | 9.10 | 0.39 | –
O=C(Nc1cnccc1-c1ccc(Cl)cc1)c1ccnc(NC(=O)C2CC(F)C2)c1 (single isomer, unassigned) [Example 222, N-(4-(4-chlorophenyl)pyridin-3-yl)-2-((1,3-trans)-3-fluorocyclobutanecarboxamido)isonicotinamide] | – | 7.43 | – | – | IC50 (GSK3β; read-out: GSK3β/α (nM): GSK3β IC50; first value of the cell; 250 pM enzyme, 20 uM ATP, 20 hours at room temperature): 1.7 nM; IC50 (GSK3α; read-out: GSK3β/α (nM): GSK3α IC50; second value of the cell; 250 pM enzyme, 20 uM ATP, 20 hours at room temperature): 1.3 nM
CC(C)c1ccncc1NC(=O)c1ccnc(NC(=O)C2CC2)c1 [Example 39, 2-(Cyclopropanecarboxamido)-N-(4-isopropylpyridine-3-yl)isonicotinamide] | – | 6.33 | 7.64 | – | –
O=C(Nc1cnccc1I)c1ccnc(NC(=O)C2CC2)c1 [Example 19, 2-(Cyclopropanecarboxamido)-N-(4-iodopyridin-3-yl)isonicotinamide] | 1.4 | 7.46 | – | 0.96 | –
Cc1cc(-c2ccncc2NC(=O)c2ccnc(NC(=O)C3CC3)c2)cs1 [Example 43, 2-(Cyclopropanecarboxamido)-N-(4-(5-methylthiophen-3-yl)pyridin-3-yl)isonicotinamide] | 2.8 | 7.31 | – | 0.85 | –
O=C(Nc1cnccc1-c1ccc(Br)cc1)c1ccnc(NC(=O)C2CC2)c1 [Example 168, N-(4-(4-bromophenyl)pyridin-3-yl)-2-(cyclopropanecarboxamido)isonicotinamide] | 6.8 | 6.62 | – | 2.2 | –
CC(C)C(=O)Nc1cc(C(=O)Nc2cnccc2C(F)(F)c2ccccc2)ccn1 [Example 198, N-(4-(difluoro(phenyl)methyl)pyridin-3-yl)-2-isobutyramidoisonicotinamide] | 390 | 5.00 | – | 230 | –
O=C(Nc1cnccc1N1CCCC(F)(F)C1)c1ccnc(NC(=O)C2CC2)c1 [Example 80, 2-(Cyclopropanecarboxamido)-N-(4-(3,3-difluoropiperidin-1-yl)pyridin-3-yl)isonicotinamide] | 1.5 | 7.47 | – | 0.46 | –
O=C(Nc1cnccc1-c1ccccc1)c1ccnc(NC(=O)[C@@H]2C[C@H]2c2ccccc2)c1 (relative stereo) [Example 99, 2-((Trans)-2-phenylcyclopropanecarboxamido)-N-(4-phenylpyridin-3-yl)isonicotinamide] | 1.8 | 5.35 | – | 24 | –
O=C(Nc1cncc2ccccc12)c1ccnc(NC(=O)C2CCCC2)c1 [Example 228, 2-(Cyclopentanecarboxamido)-N-(isoquinolin-4-yl)isonicotinamide] | 1.6 | 6.89 | – | 1.1 | –
O=C(Nc1cncc(-c2ccccc2F)c1)c1ccnc(NC(=O)C2CCC(F)(F)C2)c1 (stereo not drawn) [Example 234, 2-(3,3-difluorocyclopentanecarboxamido)-N-(5-(2-fluorophenyl)pyridin-3-yl)isonicotinamide] | – | 6.80 | 8.85 | 0.9 | –
COc1ccccc1-c1cncc(NC(=O)c2ccnc(NC(=O)C3CC3)c2)c1 [Example 123, 2-(cyclopropanecarboxamido)-N-(5-(2-methoxyphenyl)pyridin-3-yl)isonicotinamide] | – | – | 8.43 | 1.4 | IC50 (pTau): 200 nM
O=C(Nc1cncc(-c2cncc(F)c2)c1)c1ccnc(NC(=O)C2CC2)c1 [Example 161, 2-(cyclopropanecarboxamido)-N-(5′-fluoro-[3,3′-bipyridin]-5-yl)isonicotinamide] | 1.7 | 6.76 | – | 0.6 | –
O=C(Nc1cncc(N2CCCCC2)c1)c1ccnc(NC(=O)C2CC2)c1 [Example 108, 2-(cyclopropanecarboxamido)-N-(5-(piperidin-1-yl)pyridin-3-yl)isonicotinamide] | – | 5.27 | 6.89 | 23 | –
O=C(Nc1cnccc1-c1ccsc1)c1ccnc(NC(=O)C2CC2)c1 [Example 31, 2-(Cyclopropanecarboxamido)-N-(4-(thiophen-3-yl)pyridin-3-yl)isonicotinamide] | 4.4 | 6.70 | – | – | –

Compound | IC50 (GSK3β; [1]) [nM] | pIC50 (pTau) | pIC50 (GSK3β) | IC50 (GSK3α; [2]) [nM] | further results
CCOc1ccncc1NC(=O)c1ccnc(NC(=O)C2CCC2)c1 [Example 211, 2-(Cyclobutanecarboxamido)-N-(4-ethoxypyridin-3-yl)isonicotinamide] | – | 7.14 | 8.66 | 0.9 | –
O=C(Nc1cnccc1N1C2CCC1CC2)c1ccnc(NC(=O)C2CC2)c1 [Example 60, N-(4-(1s,4s)-7-azabicyclo[2.2.1]heptan-7-yl)pyridin-3-yl)-2-(cyclopropanecarboxamido)isonicotinamide] | 16 | 6.21 | – | 5.7 | –
O=C(Nc1cncs1)c1ccnc(NC(=O)C2CC2)c1 [Example 173, 2-(cyclopropanecarboxamido)-N-(thiazol-5-yl)isonicotinamide] | 18 | 5.60 | – | 14 | –
CC(C)C(=O)Nc1cc(C(=O)Nc2cnccc2OCCN2CCCC2)ccn1 [Example 188, 2-Isobutyramido-N-(4-(2-(pyrrolidin-1-yl)ethoxy)pyridin-3-yl)isonicotinamide] | 39 | 5.66 | – | 19 | –
CC(C)(O)c1ccncc1NC(=O)c1ccnc(NC(=O)C2CC2)c1 [Example 16, 2-(Cyclopropanecarboxamido)-N-(4-(2-hydroxypropan-2-yl)pyridin-3-yl)isonicotinamide] | – | – | 9.96 | – | IC50 (pTau): 2.8 nM; pIC50 (GSK3α): 9.70
O=C(Nc1cnccc1C1CCCC1)c1ccnc(NC(=O)C2CC2)c1 [Example 36, N-(4-cyclopentylpyridin-3-yl)-2-(cyclopropanecarboxamido)isonicotinamide] | – | 6.10 | 7.39 | – | –
O=C(Nc1cnc(-c2ccccc2)s1)c1ccnc(NC(=O)C2CC2)c1 [Example 181, 2-(cyclopropanecarboxamido)-N-(2-phenylthiazol-5-yl)isonicotinamide] | – | 5.26 | – | – | –
Cc1ncc(NC(=O)c2ccnc(NC(=O)C3CC3)c2)s1 [Example 177, 2-(cyclopropanecarboxamido)-N-(2-methylthiazol-5-yl)isonicotinamide] | 61 | 5.41 | – | – | –
O=C(Nc1cnccc1-c1ccc(Cl)cc1)c1ccnc(NC(=O)C2CC(Cl)C2)c1 (stereo not drawn) [Example 224, N-(4-(4-chlorophenyl)pyridin-3-yl)-2-((1,3-trans)-3-cholorocyclobutanecarboxamido)isonicotinamide] | – | 7.82 | – | – | –
O=C(Nc1cnccc1C1CCCCC1)c1ccnc(NC(=O)C2CC2)c1 [Example 37, N-(4-cyclohexylpyridin-3-yl)-2-(cyclopropanecarboxamido)isonicotinamide] | – | 5.92 | 6.92 | – | –
O=C(Nc1cnc(-c2ccccn2)s1)c1ccnc(NC(=O)C2CC2)c1 [Example 176, 2-(cyclopropanecarboxamido)-N-(2-(pyridin-2-yl)thiazol-5-yl)isonicotinamide] | 650 | 5.26 | – | – | –
C=C(C)c1ccncc1NC(=O)c1ccnc(NC(=O)C2CC2)c1 [Example 38, 2-(Cyclopropanecarboxamido)-N-(4-(prop-1-en-2-yl)pyridin-3-yl)isonicotinamide] | – | 7.10 | 8.36 | – | –
O=C(Nc1cnccc1-c1ccc(Cl)cc1)c1ccnc(NC(=O)C2CC(Cl)C2)c1 (stereo not drawn) [Example 225, N-(4-(4-chlorophenyl)pyridin-3-yl)-2-((1,3-cis)-3-cholorocyclobutanecarboxamido)isonicotinamide] | – | 7.37 | – | – | –
O=C(Nc1cncc(-c2ccccc2)c1)c1ccnc(NC(=O)C2CCC2)c1 [Example 213, 2-(cyclobutanecarboxamido)-N-(5-phenylpyridin-3-yl)isonicotinamide] | – | 5.80 | – | 2.8 | –
O=C(Nc1cnccc1-c1ccncc1)c1ccnc(NC(=O)C2CC2)c1 [Example 33, N-([4,4′-bipyridin]-3-yl)-2-(cyclopropanecarboxamido)isonicotinamide] | 28 | 6.17 | – | – | –
Cn1cnc(NC(=O)c2ccnc(NC(=O)C3CC3)c2)c1 [Example 174, 2-(cyclopropanecarboxamido)-N-(1-methyl-1H-imidazol-4-yl)isonicotinamide] | – | ≤ 5.00 | – | 1200 | –
COc1ccc(NC(=O)c2ccnc(NC(=O)C3CC3)c2)cn1 [Example 7, 2-(Cyclopropanecarboxamido)-N-(6-methoxypyridin-3-yl)isonicotinamide] | – | ≤ 5.00 | – | 1000 | –
